Assay results taken from US3965109A, “Certain aryl amino pyridines” (priority 1971, dated 1976).

Columns and labels:
[1] = test system: Puccinia recondita (wheat); test: Fungicidal test against foliar disease A (foliage spray plus soil drench); type: in vivo; conditions: 100 ppm spray and drench; 10 days
[2] = test system: Plasmopara viticola (vine); test: Fungicidal test against foliar disease C (foliage spray plus soil drench); type: in vivo; conditions: 100 ppm spray and drench; 10 days
Uncinula necator (vine) = test: Fungicidal test against foliar disease D (foliage spray plus soil drench); type: in vivo; conditions: 100 ppm spray and drench; 10 days
[3] = test system: Tetranychus telarius (red spider mites, adults); test: Pest toxicity test; type: in vivo; conditions: 0.1% by weight; French bean; 3 days
[4] = test system: Tetranychus telarius (red spider mites, eggs); test: Pest toxicity test; type: in vivo; conditions: 0.1% by weight; French bean; 3 days
Aphis fabae = test: Pest toxicity test; type: in vivo; conditions: 0.1% by weight; broad bean; 2 days
Megoura viceae = test: Pest toxicity test; type: in vivo; conditions: 0.1% by weight; broad bean; 2 days
[5] = test system: Aedes aegypti (mosquito larvae); test: Pest toxicity test; type: in vivo; conditions: 0.01% by weight; water; 1 day
[6] = test system: Aedes aegypti (mosquito adults); test: Pest toxicity test; type: in vivo; conditions: 0.01% by weight; plywood; 1 day
[7] = test system: Musca domestica (houseflies); test: Pest toxicity test, contact test; type: in vivo; conditions: 0.1% by weight; milk/sugar; 2 days; flies sprayed directly
[8] = test system: Pieris brassicae (cabbage white caterpillars); test: Pest toxicity test; type: in vivo; conditions: 0.1% by weight, 2 days
[9] = test system: Plutella maculipennis (diamond back moth larvae); test: Pest toxicity test; type: in vivo
[10] = test system: Phaedon cochleariae (mustard beetles); test: Pest toxicity test; type: in vivo
Lettuce = test: Herbicidal test, pre- and post-emergence; type: in vivo
Tomato = test: Herbicidal test, pre- and post-emergence; type: in vivo
Wheat [11] = test: Herbicidal test, pre- and post-emergence; type: in vivo
Maize = test: Herbicidal test, pre- and post-emergence; type: in vivo
Sugar beet = test: Further herbicidal test, various rates; type: in vivo; conditions: scale 0 to 5 (complete kill)
Kale = test: Further herbicidal test, various rates; type: in vivo; conditions: scale 0 to 5 (complete kill)
Carrot = test: Further herbicidal test, various rates; type: in vivo; conditions: scale 0 to 5 (complete kill)
Pea = test: Further herbicidal test, various rates; type: in vivo; conditions: scale 0 to 5 (complete kill)
Onion = test: Further herbicidal test, various rates; type: in vivo; conditions: scale 0 to 5 (complete kill)
Barley [12] = test: Further herbicidal test, various rates; type: in vivo; conditions: scale 0 to 5 (complete kill)
Rice = test: Further herbicidal test, various rates; type: in vivo; conditions: scale 0 to 5 (complete kill)
Oat = test: Further herbicidal test, various rates; type: in vivo; conditions: scale 0 to 5 (complete kill)
[13] = test system: larvae of the blowfly (Lucilia serrata); test: Insecticidal test on blowfly larvae on treated filter paper; type: in vivo; conditions: scale of 1 to 6; filter paper with horse serum
[14] = test system: larvae of the tick Boophilus microplus; test: Similar test on tick larvae on filter paper without horse serum; type: in vivo
[15] = test system: Piricularia oryzae (rice); type: in vivo; conditions: 100 ppm spray and drench; 7 days
[16] = test system: Agriolimax reticulatus (slugs); test: Molluscicidal activity test; type: in vivo, Agriolimax reticulatus (Mull); conditions: pellet with 4% by weight; 6 days; 10°C
Summary of the method: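 Compound was applied to a calf feeding pellet at 4% by weight active ingredient after 24 h air drying. Two replicates, each of 2 slugs starved 24 h, were kept with a moist filter paper at 10°C, and kill was assessed after 6 days.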

Barley [17] = test: Selective herbicidal activity; type: in vivo
Description: (§1) This Example illustrates the selective herbicidal activity of compounds No. 5 and 12 of Table 1. The compounds, formulated as in Example 5 were sprayed on to pots of soil previously sown with seeds of the plant species shown in Tables 13 and 14.
(§2) Table 14 gives the results for compound No. 12 of Table 1 The figures are assessments of damage to the plants 23 days after treatment, on a scale of 0 to 5 where 0 is no effect and 5 is complete kill

Wheat [18] = test: Selective herbicidal activity; type: in vivo
Description: as §1, §2

broadleaved plants = test: Selective herbicidal activity; type: in vivo; conditions: Tables 13 and 14
Description: as §1, §2

Redshank = test: Selective herbicidal activity; type: in vivo, Polygonum persicaria; conditions: 2 kg/hectare; 23 days; scale 0 to 5 (complete kill)
Description: as §1
Redshank Polygonum persicaria

Mayweed = test: Selective herbicidal activity; type: in vivo, Tripleurospermum maritimum ssp. inodorum; conditions: 2 kg/hectare; 23 days; scale 0 to 5 (complete kill)
Description: as §1
Mayweed Tripleurospermum maritimum

Speedwell = test: Selective herbicidal activity; type: in vivo, Veronica spp; conditions: 2 kg/hectare; 23 days; scale 0 to 5 (complete kill)
Description: as §1

Knotgrass = test: Selective herbicidal activity; type: in vivo, Polygonum aviculare; conditions: 2 kg/hectare; 23 days; scale 0 to 5 (complete kill)
Description: as §1, §2
Knotgrass Polygonum aviculare

Corn Marigold = test: Selective herbicidal activity; type: in vivo, Chrysanthemum segetum; conditions: 2 kg/hectare; 23 days; scale 0 to 5 (complete kill)
Description: as §1, §2
Corn marigold Chrysanthemum segetum

[19] = 0.1% by weight, mustard/paper, 2 days
[20] = 10 kg/ha, scale 0 to 3 (complete kill)
[21] = 10 lb/acre (11.2 kg/ha), scale 0 (no effect) to 3 (complete kill)
[22] = 2 kg/hectare, 23 days, scale 0 to 5 (complete kill)

What does the source list for `O=[N+]([O-])c1ccc(Nc2c(F)c(F)nc(F)c2F)c(C(F)(F)F)c1` [Compound 28, 4-(4-Nitro-2-trifluoromethylanilino)-tetrafluoropyridine]?
Amount of disease grading, disease A (Table 4) [1]: 0 (61 to 100); Amount of disease grading, disease C (Table 4) [2]: 3 (0 to 5); Amount of disease grading, disease D (Table 4) (Uncinula necator (vine)): 3 (0 to 5); Mortality grading (kill) [3]: 3 (3 represents over 90% kill); Mortality grading (kill) [4]: 3 (3 represents over 90% kill); Mortality grading (kill) (Aphis fabae): 3 (3 represents over 90% kill); Mortality grading (kill) (Megoura viceae): 3 (3 represents over 90% kill); Mortality grading (kill) [5]: 3 (3 represents over 90% kill); Mortality grading (kill) [6]: 3 (3 represents over 90% kill); Mortality grading (kill), contact test [7]: 3 (3 represents over 90% kill); Mortality grading (kill) [8]: 3 (3 represents over 90% kill); Mortality grading (kill) [9, 19]: 3 (3 represents over 90% kill); Mortality grading (kill) [10, 19]: 3 (3 represents over 90% kill); Damage to plants, post-emergence (Lettuce; [20]): 3; Damage to plants, pre-emergence (Lettuce; [20]): 3; Damage to plants, post-emergence (Tomato; [20]): 3; Damage to plants, pre-emergence (Tomato; [20]): 3; Damage to plants, post-emergence (Wheat [11]; [20]): 1; Damage to plants, pre-emergence (Wheat [11]; [20]): 3; Damage to plants, post-emergence (Maize; [20]): 0; Damage to plants, pre-emergence (Maize; [20]): 0; Damage to plants, post-emergence (Sugar beet; 1 kg/hectare): 5; Damage to plants, pre-emergence (Sugar beet; 1 kg/hectare): 5; Damage to plants, post-emergence (Sugar beet; 5 kg/hectare): 5; Damage to plants, pre-emergence (Sugar beet; 5 kg/hectare): 5; Damage to plants, post-emergence (Kale; 1 kg/hectare): 5; Damage to plants, pre-emergence (Kale; 1 kg/hectare): 4; Damage to plants, post-emergence (Kale; 5 kg/hectare): 4; Damage to plants, pre-emergence (Kale; 5 kg/hectare): 5; Damage to plants, post-emergence (Carrot; 1 kg/hectare): 3; Damage to plants, pre-emergence (Carrot; 1 kg/hectare): 4; Damage to plants, post-emergence (Carrot; 5 kg/hectare): 4; Damage to plants, pre-emergence (Carrot; 5 kg/hectare): 5; Damage to plants, pre-emergence (Pea; 1 kg/hectare): 5; Damage to plants, post-emergence (Pea; 5 kg/hectare): 0; Damage to plants, pre-emergence (Pea; 5 kg/hectare): 5; Damage to plants, post-emergence (Onion; 1 kg/hectare): 3; Damage to plants, pre-emergence (Onion; 1 kg/hectare): 5; Damage to plants, post-emergence (Onion; 5 kg/hectare): 0; Damage to plants, pre-emergence (Onion; 5 kg/hectare): 5; Damage to plants, post-emergence (Barley [12]; 1 kg/hectare): 1; Damage to plants, pre-emergence (Barley [12]; 1 kg/hectare): 4; Damage to plants, post-emergence (Barley [12]; 5 kg/hectare): 0; Damage to plants, pre-emergence (Barley [12]; 5 kg/hectare): 5; Damage to plants, post-emergence (Rice; 1 kg/hectare): 0; Damage to plants, pre-emergence (Rice; 1 kg/hectare): 4; Damage to plants, post-emergence (Rice; 5 kg/hectare): 0; Damage to plants, pre-emergence (Rice; 5 kg/hectare): 5; Damage to plants, post-emergence (Oat; 1 kg/hectare): 2; Damage to plants, pre-emergence (Oat; 1 kg/hectare): 4; Damage to plants, post-emergence (Oat; 5 kg/hectare): 0; Damage to plants, pre-emergence (Oat; 5 kg/hectare): 5; Activity relative to lindane [13]: 6 (6 represents activity 10 times that of the standard); times more toxic than lindane [14]: 10 times

With `O=[N+]([O-])c1c(F)c(F)c(Nc2c(Cl)c(F)nc(F)c2Cl)c(F)c1F` [Compound 12, 3,5-Dichloro-2,6-difluoro-4(4-nitro 2,3,5,6-tetrafluoroanilino) pyridine] as the molecule, how does the “Amount of disease grading, disease A” value [1] read?
Its value is 2 (6 to 25).

What about the “Amount of disease grading, disease C” value [2] of the same molecule?
The value was 3 (0 to 5).

And the “Amount of disease grading, disease D” value (Uncinula necator (vine))?
The value was 3 (0 to 5).

And the “Amount of disease grading, disease E” value [15]?
The value was 0 (61 to 100).

And the “Mortality grading (kill)” value [3]?
The value was 3 (3 represents over 90% kill).

What about the “Mortality grading (kill)” value [4] of the same molecule?
The value was 3 (3 represents over 90% kill).

What about the “Mortality grading (kill)” value (Aphis fabae) of the same molecule?
The value was 3 (3 represents over 90% kill).

What about the “Mortality grading (kill)” value (Megoura viceae) of the same molecule?
The value was 3 (3 represents over 90% kill).

What about the “Mortality grading (kill)” value [5] of the same molecule?
Its value is 3 (3 represents over 90% kill).

What about the “Mortality grading (kill)” value [6] of the same molecule?
The value was 0 (O represents less than 30% kill).

And the “Mortality grading (kill), contact test” value [7]?
The value was 2 (2 represents 60 - 90% kill).

What about the “Mortality grading (kill)” value [8] of the same molecule?
Its value is 0 (O represents less than 30% kill).

What about the “Mortality grading (kill)” value ([9]; in vivo) of the same molecule?
Its value is 0 (key: O represents less than 30% kill; 1 represents 30 - 49% kill; 2 represents 60 - 90% kill; 3 represents over 90% kill; C indicates a chemosterilant effect.; A indicates an antifeeding effect.).

What about the “Mortality grading (kill)” value ([10]; in vivo) of the same molecule?
The value was 0 (key: O represents less than 30% kill; 1 represents 30 - 49% kill; 2 represents 60 - 90% kill; 3 represents over 90% kill; C indicates a chemosterilant effect.; A indicates an antifeeding effect.).

What about the “% Kill of slugs” value [16] of the same molecule?
Its value is 50%.

And the “Damage to plants, post-emergence” value (Lettuce; [21])?
The value was 3.

What about the “Damage to plants, pre-emergence” value (Lettuce; [21]) of the same molecule?
Its value is 3.

And the “Damage to plants, post-emergence” value (Tomato; [21])?
Its value is 3.

And the “Damage to plants, pre-emergence” value (Tomato; [21])?
The value was 3.

What about the “Damage to plants, post-emergence” value (Wheat [11]; [21]) of the same molecule?
Its value is 0.

And the “Damage to plants, pre-emergence” value (Wheat [11]; [21])?
Its value is 3.

And the “Damage to plants, post-emergence” value (Maize; [21])?
The value was 1.

What about the “Damage to plants, pre-emergence” value (Maize; [21]) of the same molecule?
The value was 3.

What about the “Damage to plants, post-emergence” value (Sugar beet; 5 lb/acre) of the same molecule?
The value was 5.

And the “Damage to plants, pre-emergence” value (Sugar beet; 5 lb/acre)?
Its value is 4.

And the “Damage to plants, post-emergence” value (Kale; 5 lb/acre)?
The value was 5.

What about the “Damage to plants, pre-emergence” value (Kale; 5 lb/acre) of the same molecule?
Its value is 4.

What about the “Damage to plants, post-emergence” value (Carrot; 5 lb/acre) of the same molecule?
The value was 5.

What about the “Damage to plants, pre-emergence” value (Carrot; 5 lb/acre) of the same molecule?
Its value is 4.

What about the “Damage to plants, post-emergence” value (Pea; 5 lb/acre) of the same molecule?
Its value is 1.

What about the “Damage to plants, pre-emergence” value (Pea; 5 lb/acre) of the same molecule?
Its value is 3.

What about the “Damage to plants, post-emergence” value (Onion; 5 lb/acre) of the same molecule?
The value was 0.

And the “Damage to plants, post-emergence” value (Barley [12]; 5 lb/acre)?
Its value is 2.

And the “Damage to plants, post-emergence” value (Rice; 5 lb/acre)?
The value was 0.

What about the “Damage to plants, post-emergence” value (Oat; 5 lb/acre) of the same molecule?
Its value is 0.

And the “Damage to plants, pre-emergence” value (Oat; 5 lb/acre)?
The value was 0.

And the Damage to plants (Barley [17]; [22])?
The Damage to plants was 1.

And the “damage to barley (in words)” value (Barley [17]; Tables 13 and 14)?
The value was “undamaged”.

And the Damage to plants (Wheat [18]; [22])?
The Damage to plants was 0.

And the “damage to wheat (in words)” value (Wheat [18]; Tables 13 and 14)?
The value was “undamaged”.

And the “damage to the broadleaved plants (in words)” value (broadleaved plants)?
The value was “caused damage to the broadleaved plants”.

And the Damage to plants (Redshank)?
Its Damage to plants is 5.

What about the Damage to plants (Mayweed) of the same molecule?
The Damage to plants was 5.

What about the Damage to plants (Speedwell) of the same molecule?
The Damage to plants was 0.

What about the Damage to plants (Knotgrass) of the same molecule?
The Damage to plants was 4.

What about the Damage to plants (Corn Marigold) of the same molecule?
Its Damage to plants is 3.5.
